Results published in patent publication US7226923B2, “Phthalazinone derivatives” (Hoffman-La Roche Inc., priority 2004, dated 2007).

Key:
Aurora A = target: T1, Aurora A (Homo sapiens, UniProt O14965); assay: IC50 determination for inhibitors of Aurora A (96 MTP-ELISA); type: biochemical; conditions: His4-tagged full-length Aurora A 250 ng/ml, PKB-GSK2 200 nM, ATP 4 μM, 90 min at room temperature, read-out: IC50 Aurora A kinase inhibition
T1 construct: C-terminally Histidine4 (His4)-tagged Aurora A full-length protein
T1 sequence (O14965 1-403): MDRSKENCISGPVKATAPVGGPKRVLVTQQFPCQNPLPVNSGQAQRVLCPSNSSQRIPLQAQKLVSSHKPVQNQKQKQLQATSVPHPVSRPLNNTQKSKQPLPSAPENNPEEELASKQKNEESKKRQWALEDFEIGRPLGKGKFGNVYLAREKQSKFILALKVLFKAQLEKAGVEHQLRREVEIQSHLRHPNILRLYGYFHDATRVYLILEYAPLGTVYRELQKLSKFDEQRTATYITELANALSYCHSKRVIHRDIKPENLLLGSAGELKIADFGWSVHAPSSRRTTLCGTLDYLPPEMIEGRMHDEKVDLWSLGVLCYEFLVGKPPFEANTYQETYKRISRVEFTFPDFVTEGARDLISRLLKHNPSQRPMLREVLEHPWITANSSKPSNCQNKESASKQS

HCT 116 cells = assay: CellTiter-Glo assay in HCT 116 cells; type: cell-based, human; conditions: Homo sapiens, HCT-116, 120 h, 5 days incubation, 30 μM to 0.0015 μM
Excerpt: CellTiter-Glo™ Assay in HCT 116 Cells
The CellTiter-Glo™ Luminescent Cell Viability Assay (Promega) is a homogeneous method of determining the number of viable cells in culture based on quantitation of the ATP present, which signals the presence of metabolically active cells.
HCT 116 cells (human colon carcinoma, ATCC-No. CCl-247) were cultivated in RPMI 1640 medium with GlutaMAX™ I (Invitrogen, Cat-No. 61870-010), 2.5% Fetal Calf Serum (FCS, Sigma Cat-No. F4135 (FBS)); 100 Units/ml penicillin/100 μg/ml streptomycin (=Pen/Strep from Invitrogen Cat. No. 15140). For the assay the cells were seeded in 384 well plates, 1000 cells per well, in the same medium. The next day the test compounds were added in various concentrations ranging from 30 μM to 0.0015 μM (10 concentrations, 1:3 diluted). After 5 days the CellTiter-Glo™ assay was done according to the instructions of the manufacturer (CellTiter-Glo™ Luminescent Cell Viability Assay, from Promega). In brief: the cell-plate was equilibrated to room temperature for approximately 30 minutes and than the CellTiter-Glo™ reagent was added. The contents were carefully mixed for 15 minutes to induce cell lysis. After 45 minutes the luminescent signal was measured in Victor 2, (scanning multiwell spectrophotometer, Wallac).
1st. Day: • Medium: RPMI 1640 with GlutaMAX™ I (Invitrogen, Cat-Nr. 61870), 5% FCS (Sigma Cat.-No. F4135), Pen/Strep (Invitrogen, Cat No. 15140). • HCT116 (ATCC-No. CCl-247): 1000 cells in 60 μl per well of 384 well plate (Greiner 781098, μClear-plate white) • After seeding incubate plates 24 h at 37° C., 5% CO2
2nd. Day: Induction (Treatment with Compounds, 10 Concentrations):
In order to achieve a final concentration of 30 μM as highest concentration 3.5 μl of 10 mM compound stock solution were added directly to 163 μl media. Then step e) of the dilution procedure described below, was followed.

| Compound | IC50 (Aurora A) | IC50 (HCT 116 cells) |
| --- | --- | --- |
| Cc1cc(Nc2nn(C(C)C)c(=O)c3cc(N(C)Cc4cccnc4)ccc23)n[nH]1 [Example I-3, 2-Isopropyl-4-(5-methyl-1H-pyrazol-3-ylamino)-7-(methyl-pyridin-3-ylmethyl-amino)-2H-phthalazin-1-one] | 1 to 100 nM | 0.1 to 10 µM |
| Cc1cc(Nc2nn(C(C)C)c(=O)c3cc(N(C)Cc4ccccn4)ccc23)n[nH]1 [Example I-4, 2-Isopropyl-4-(5-methyl-1H-pyrazol-3-ylamino)-7-(methyl-pyridin-2-ylmethyl-amino)-2H-phthalazin-1-one] | 1 to 100 nM | 0.1 to 10 µM |
| Cc1cc(Nc2nn(C(C)C)c(=O)c3cc(N(C)C(=O)NC(C)C)ccc23)n[nH]1 [Example I-6, 3-Isopropyl-1-[3-isopropyl-1-(5-methyl-1H-pyrazol-3-ylamino)-4-oxo-3,4-dihydro-phthalazin-6-yl]-1-methyl-urea] | 1 to 100 nM | 0.1 to 10 µM |
| CNC(=O)Nc1ccc2c(Nc3cc(C)[nH]n3)nn(C(C)C)c(=O)c2c1 [Example I-13, 1-[3-Isopropyl-1-(5-methyl-1H-pyrazol-3-ylamino)-4-oxo-3,4-dihydro-phthalazin-6-yl]-3-methyl-urea] | 1 to 100 nM | 0.1 to 10 µM |
| Cc1cc(Nc2nn(C(C)C)c(=O)c3cc(N(C)C(=O)OC(C)(C)C)ccc23)[nH]n1 [Example I-14, [3-Isopropyl-1-(5-methyl-2H-pyrazol-3-ylamino)-4-oxo-3,4-dihydro-phthalazin-6-yl]-methyl-carbamic acid tert-butyl ester] | 1 to 100 nM | 0.1 to 10 µM |
| COCc1ccc2c(Nc3cc(C)[nH]n3)nn(C(C)C)c(=O)c2c1 [Example K-1, 2-Isopropyl-7-methoxymethyl-4-(5-methyl-1H-pyrazol-3-ylamino)-2H-phthalazin-1-one] | 1 to 100 nM | 0.1 to 10 µM |
| Cc1cc(Nc2nn(C(C)C)c(=O)c3cc(CN4CCOCC4)ccc23)n[nH]1 [Example L-2, 2-Isopropyl-4-(5-methyl-1H-pyrazol-3-ylamino)-7-morpholin-4-ylmethyl-2H-phthalazin-1-one] | 1 to 100 nM | 0.1 to 10 µM |
| Cc1cc(Nc2nn(C(C)C)c(=O)c3cc(C(=O)N4CCOCC4)ccc23)n[nH]1 [Example M-2, 2-Isopropyl-4-(5-methyl-1H-pyrazol-3-ylamino)-7-(morpholine-4-carbonyl)-2H-phthalazin-1-one] | 1 to 100 nM | 0.1 to 10 µM |
| CCN(CC)C(=O)c1ccc2c(Nc3cc(C)[nH]n3)nn(C(C)C)c(=O)c2c1 [Example M-3, 3-Isopropyl-1-(5-methyl-1H-pyrazol-3-ylamino)-4-oxo-3,4-dihydro-phthalazine-6-carboxylic acid diethylamide] | 1 to 100 nM | 0.1 to 10 µM |
| CC(=O)N1CCN(C(=O)c2ccc3c(Nc4cc(C)[nH]n4)nn(C(C)C)c(=O)c3c2)CC1 [Example M-7, 7-(4-Acetyl-piperazine-1-carbonyl)-2-isopropyl-4-(5-methyl-1H-pyrazol-3-ylamino)-2H-phthalazin-1-one] | 1 to 100 nM | 10 to 100 µM |
| COC(=O)c1ccc2c(Nc3cc(C)[nH]n3)nn(C(C)C)c(=O)c2c1 [Example M-8, 3-Isopropyl-1-(5-methyl-1H-pyrazol-3-ylamino)-4-oxo-3,4-dihydro-phthalazine-6-carboxylic acid methyl ester] | 1 to 100 nM | 0.1 to 10 µM |
| Cc1cc(Nc2nn(C(C)C)c(=O)c3cc(CO)ccc23)n[nH]1 [Example M-9, 7-Hydroxymethyl-2-isopropyl-4-(5-methyl-1H-pyrazol-3-ylamino)-2H-phthalazin-1-one] | 1 to 100 nM | 0.1 to 10 µM |
| Cc1cc(Nc2nn(C(C)C)c(=O)c3ccc(CO)cc23)n[nH]1 [Example M-10, 6-Hydroxymethyl-2-isopropyl-4-(5-methyl-1H-pyrazol-3-ylamino)-2H-phthalazin-1-one] | 100 to 1000 nM | 0.1 to 10 µM |
| Cc1cc(Nc2nn(C(C)C)c(=O)c3cc(C(N)=O)ccc23)n[nH]1 [Example N-1, 3-Isopropyl-1-(5-methyl-1H-pyrazol-3-ylamino)-4-oxo-3,4-dihydro-phthalazine-6-carboxylic acid amide] | 1 to 100 nM | 0.1 to 10 µM |
| COCCn1nc(Nc2cc(C)n[nH]2)c2ccccc2c1=O [Example O-1, 2-(2-Methoxyethyl)-4-(5-methyl-2H-pyrazol-3-ylamino)-2H-phthalazin-1-one] | 100 to 1000 nM | 10 to 100 µM |
| Cc1cc(Nc2nn(-c3ccc(C(C)C)cc3)c(=O)c3ccccc23)[nH]n1 [Example P-1, 2-(4-Isopropyl-phenyl)-4-(5-methyl-2H-pyrazol-3-ylamino)-2H-phthalazin-1-one] | 1 to 100 nM | 0.1 to 10 µM |
| CCC(C)c1ccc(-n2nc(Nc3cc(C)n[nH]3)c3ccccc3c2=O)cc1 (stereo not shown) [Example P-2, 2-(4-sec-Butyl-phenyl)-4-(5-methyl-2H-pyrazol-3-ylamino)-2H-phthalazin-1-one] | 1 to 100 nM | 10 to 100 µM |
| Cc1cc(Nc2nn(-c3cccc(C(F)(F)F)c3)c(=O)c3ccccc23)n[nH]1 [Example R-1, 4-(5-Methyl-1H-pyrazol-3-ylamino)-2-(3-trifluoromethyl-phenyl)-2H-phthalazin-1-one] | 1 to 100 nM | 0.1 to 10 µM |
| Cc1cc(Nc2nn(-c3ccccc3Cl)c(=O)c3ccccc23)n[nH]1 [Example R-4, 2-(2-Chloro-phenyl)-4-(5-methyl-1H-pyrazol-3-ylamino)-2H-phthalazin-1-one] | 1 to 100 nM | 0.1 to 10 µM |
| CNC(=O)c1ccc(-n2nc(Nc3cc(C)[nH]n3)c3ccccc3c2=O)cc1 [Example S-1, N-Methyl-4-[4-(5-methyl-1H-pyrazol-3-ylamino)-1-oxo-1H-phthalazin-2-yl]-benzamide] | 100 to 1000 nM | 0.1 to 10 µM |
| Cc1cc(Nc2nn(-c3ccc(NC(=O)C(C)(C)C)cc3)c(=O)c3ccccc23)n[nH]1 [Example T-3, 2,2-Dimethyl-N-{4-[4-(5-methyl-1H-pyrazol-3-ylamino)-1-oxo-1H-phthalazin-2-yl]-phenyl}-propionamide] | 100 to 1000 nM | 0.1 to 10 µM |
| Cc1cc(Nc2nn(-c3ccc(NC(=O)c4ccccc4)cc3)c(=O)c3ccccc23)n[nH]1 [Example T-4, N-{4-[4-(5-Methyl-1H-pyrazol-3-ylamino)-1-oxo-1H-phthalazin-2-yl]-phenyl}-benzamide] | 100 to 1000 nM | 0.1 to 10 µM |
| Cc1cc(Nc2nn(-c3ccc(Nc4ccccc4)cc3)c(=O)c3ccccc23)n[nH]1 [Example U-1, 4-(5-Methyl-1H-pyrazol-3-ylamino)-2-(4-phenylamino-phenyl)-2H-phthalazin-1-one] | 1 to 100 nM | 0.1 to 10 µM |
| Cc1cc(Nc2nn(-c3ccc(N4CCOCC4)cc3)c(=O)c3ccccc23)n[nH]1 [Example U-2, 4-(5-Methyl-1H-pyrazol-3-ylamino)-2-(4-morpholin-4-yl-phenyl)-2H-phthalazin-1-one] | 1 to 100 nM | 0.1 to 10 µM |
| Cc1cc(Nc2nn(-c3ccc(N4CCCCC4)cc3)c(=O)c3ccccc23)[nH]n1 [Example V-1, 4-(5-Methyl-2H-pyrazol-3-ylamino)-2-(4-piperidin-1-yl-phenyl)-2H-phthalazin-1-one] | 1 to 100 nM | 0.1 to 10 µM |
| Cc1cc(Nc2nn(-c3ccc(OC(F)(F)F)cc3)c(=O)c3ccccc23)n[nH]1 [Example W-2, 4-(5-Methyl-1H-pyrazol-3-ylamino)-2-(4-trifluoromethoxy-phenyl)-2H-phthalazin-1-one] | 1 to 100 nM | 0.1 to 10 µM |
